According to patent publication US8192962B2, “Processes for detecting toxic substances” (Daikin Industries, Ltd., priority 2001, dated 2012):

Test system: Metabolism protein genes
Test: DNA chip mRNA expression in yeast, metabolism protein genes (Table 7)
Format: cell-based, Saccharomyces cerevisiae S288C
How it was run: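 Untreated cultures served as reference for log-phase S288C yeast given a growth-inhibiting, non-lethal toxicant dose for 2 h at 25° C. in YPD. Gene expression was measured on a whole-genome DNA chip from Cy3/Cy5-labeled cDNA.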

S=C([S-])NCCNC(=S)[S-].[Zn+2] [(11), zinc N,N′-ethylenebis(dithiocarbamate)]
The level of expressed mRNA in the presence of chemical substance/The level of expressed mRNA in the absence of chemical substance (yeast gene YAL012W): 4.0 | The level of expressed mRNA in the presence of chemical substance/The level of expressed mRNA in the absence of chemical substance (yeast gene YAL038W): 1.0 | level of expressed mRNA in the presence/in the absence of chemical substance (yeast gene YBR003W): 1.3 | level of expressed mRNA in the presence/in the absence of chemical substance (yeast gene YBR011C): 1.7 | level of expressed mRNA in the presence/in the absence of chemical substance (yeast gene YBR020W): 1.0 | The level of expressed mRNA in the presence of chemical substance/The level of expressed mRNA in the absence of chemical substance (yeast gene YBR023C): 0.9 | The level of expressed mRNA in the presence of chemical substance/The level of expressed mRNA in the absence of chemical substance (yeast gene YBR029C): 0.7 | The level of expressed mRNA in the presence of chemical substance/The level of expressed mRNA in the absence of chemical substance (yeast gene YBR183W): 1.9 | The level of expressed mRNA in the presence of chemical substance/The level of expressed mRNA in the absence of chemical substance (yeast gene YBR222C): 1.3 | The level of expressed mRNA in the presence of chemical substance/The level of expressed mRNA in the absence of chemical substance (yeast gene YBR256C): 3.2 | The level of expressed mRNA in the presence of chemical substance/The level of expressed mRNA in the absence of chemical substance (yeast gene YCL009C): 1.5 | The level of expressed mRNA in the presence of chemical substance/The level of expressed mRNA in the absence of chemical substance (yeast gene YCL064C): 1.8 | level of expressed mRNA in the presence/in the absence of chemical substance (yeast gene YCR010C): 1.1 | level of expressed mRNA in the presence/in the absence of chemical substance (yeast gene YCR034W): 0.8 | The level of expressed mRNA in the presence of chemical substance/The level of expressed mRNA in the absence of chemical substance (yeast gene YCR048W): 1.2 | The level of expressed mRNA in the presence of chemical substance/The level of expressed mRNA in the absence of chemical substance (yeast gene YCR098C): 1.3 | The level of expressed mRNA in the presence of chemical substance/The level of expressed mRNA in the absence of chemical substance (yeast gene YDR019C): 1.8 | level of expressed mRNA in the presence/in the absence of chemical substance (yeast gene YDR050C): 2.0 | level of expressed mRNA in the presence/in the absence of chemical substance (yeast gene YDR073W): 1.0 | level of expressed mRNA in the presence/in the absence of chemical substance (yeast gene YDR123C): 0.6 | level of expressed mRNA in the presence/in the absence of chemical substance (yeast gene YDR178W): 2.0 | level of expressed mRNA in the presence/in the absence of chemical substance (yeast gene YDR277C): 1.2 | level of expressed mRNA in the presence/in the absence of chemical substance (yeast gene YDR284C): 1.3 | level of expressed mRNA in the presence/in the absence of chemical substance (yeast gene YDR345C): 1.5 | The level of expressed mRNA in the presence of chemical substance/The level of expressed mRNA in the absence of chemical substance (yeast gene YDR380W): 0.4 | level of expressed mRNA in the presence/in the absence of chemical substance (yeast gene YDR400W): 1.3 | level of expressed mRNA in the presence/in the absence of chemical substance (yeast gene YDR408C): 1.7 | level of expressed mRNA in the presence/in the absence of chemical substance (yeast gene YDR483W): 1.4 | The level of expressed mRNA in the presence of chemical substance/The level of expressed mRNA in the absence of chemical substance (yeast gene YDR497C): 0.7 | The level of expressed mRNA in the presence of chemical substance/The level of expressed mRNA in the absence of chemical substance (yeast gene YDR502C): 1.3 | The level of expressed mRNA in the presence of chemical substance/The level of expressed mRNA in the absence of chemical substance (yeast gene YDR516C): 2.8 | level of expressed mRNA in the presence/in the absence of chemical substance (yeast gene YEL063C): 0.8 | level of expressed mRNA in the presence/in the absence of chemical substance (yeast gene YER015W): 1.0 | The level of expressed mRNA in the presence of chemical substance/The level of expressed mRNA in the absence of chemical substance (yeast gene YER026C): 0.9 | The level of expressed mRNA in the presence of chemical substance/The level of expressed mRNA in the absence of chemical substance (yeast gene YER053C): 2.4 | The level of expressed mRNA in the presence of chemical substance/The level of expressed mRNA in the absence of chemical substance (yeast gene YER069W): 1.5 | level of expressed mRNA in the presence/in the absence of chemical substance (yeast gene YER081W): 1.1 | The level of expressed mRNA in the presence of chemical substance/The level of expressed mRNA in the absence of chemical substance (yeast gene YER096W): 1.1 | level of expressed mRNA in the presence/in the absence of chemical substance (yeast gene YER120W): 1.1 | The level of expressed mRNA in the presence of chemical substance/The level of expressed mRNA in the absence of chemical substance (yeast gene YER178W): 2.5 | level of expressed mRNA in the presence/in the absence of chemical substance (yeast gene YFL011W): 2.1 | The level of expressed mRNA in the presence of chemical substance/The level of expressed mRNA in the absence of chemical substance (yeast gene YFL014W): 5.0 | The level of expressed mRNA in the presence of chemical substance/The level of expressed mRNA in the absence of chemical substance (yeast gene YFL030W): 5.4 | The level of expressed mRNA in the presence of chemical substance/The level of expressed mRNA in the absence of chemical substance (yeast gene YFL031W): 1.2 | The level of expressed mRNA in the presence of chemical substance/The level of expressed mRNA in the absence of chemical substance (yeast gene YFL056C): 68.3 | The level of expressed mRNA in the presence of chemical substance/The level of expressed mRNA in the absence of chemical substance (yeast gene YFL057C): 27.7 | The level of expressed mRNA in the presence of chemical substance/The level of expressed mRNA in the absence of chemical substance (yeast gene YFR015C): 3.9 | The level of expressed mRNA in the presence of chemical substance/The level of expressed mRNA in the absence of chemical substance (yeast gene YFR047C): 2.3 | level of expressed mRNA in the presence/in the absence of chemical substance (yeast gene YGL012W): 0.6 | The level of expressed mRNA in the presence of chemical substance/The level of expressed mRNA in the absence of chemical substance (yeast gene YGL022W): 0.8 | level of expressed mRNA in the presence/in the absence of chemical substance (yeast gene YGL115W): 1.0 | The level of expressed mRNA in the presence of chemical substance/The level of expressed mRNA in the absence of chemical substance (yeast gene YGL126W): 1.0 | level of expressed mRNA in the presence/in the absence of chemical substance (yeast gene YGL205W): 0.4 | The level of expressed mRNA in the presence of chemical substance/The level of expressed mRNA in the absence of chemical substance (yeast gene YGL209W): 0.8 | The level of expressed mRNA in the presence of chemical substance/The level of expressed mRNA in the absence of chemical substance (yeast gene YGL248W): 1.0 | The level of expressed mRNA in the presence of chemical substance/The level of expressed mRNA in the absence of chemical substance (yeast gene YGR037C): 1.4 | The level of expressed mRNA in the presence of chemical substance/The level of expressed mRNA in the absence of chemical substance (yeast gene YGR055W): 1.5 | level of expressed mRNA in the presence/in the absence of chemical substance (yeast gene YGR096W): 0.8 | level of expressed mRNA in the presence/in the absence of chemical substance (yeast gene YGR191W): 1.6 | The level of expressed mRNA in the presence of chemical substance/The level of expressed mRNA in the absence of chemical substance (yeast gene YGR194C): 0.7 | level of expressed mRNA in the presence/in the absence of chemical substance (yeast gene YGR204W): 2.1 | The level of expressed mRNA in the presence of chemical substance/The level of expressed mRNA in the absence of chemical substance (yeast gene YGR256W): 2.7 | The level of expressed mRNA in the presence of chemical substance/The level of expressed mRNA in the absence of chemical substance (yeast gene YGR282C): 1.5 | level of expressed mRNA in the presence/in the absence of chemical substance (yeast gene YGR288W): 1.3 | level of expressed mRNA in the presence/in the absence of chemical substance (yeast gene YHR025W): 2.1 | The level of expressed mRNA in the presence of chemical substance/The level of expressed mRNA in the absence of chemical substance (yeast gene YHR111W): 1.9 | level of expressed mRNA in the presence/in the absence of chemical substance (yeast gene YHR123W): 1.2 | The level of expressed mRNA in the presence of chemical substance/The level of expressed mRNA in the absence of chemical substance (yeast gene YHR137W): 0.6 | The level of expressed mRNA in the presence of chemical substance/The level of expressed mRNA in the absence of chemical substance (yeast gene YHR174W): 1.4 | The level of expressed mRNA in the presence of chemical substance/The level of expressed mRNA in the absence of chemical substance (yeast gene YHR176W): 1.2 | level of expressed mRNA in the presence/in the absence of chemical substance (yeast gene YHR210C): 1.5 | level of expressed mRNA in the presence/in the absence of chemical substance (yeast gene YIL006W): 1.0 | The level of expressed mRNA in the presence of chemical substance/The level of expressed mRNA in the absence of chemical substance (yeast gene YIL045W): 1.2 | The level of expressed mRNA in the presence of chemical substance/The level of expressed mRNA in the absence of chemical substance (yeast gene YIL107C): 0.9 | The level of expressed mRNA in the presence of chemical substance/The level of expressed mRNA in the absence of chemical substance (yeast gene YIL154C): 1.2 | The level of expressed mRNA in the presence of chemical substance/The level of expressed mRNA in the absence of chemical substance (yeast gene YIL155C): 1.3 | The level of expressed mRNA in the presence of chemical substance/The level of expressed mRNA in the absence of chemical substance (yeast gene YIL167W): 1.9 | The level of expressed mRNA in the presence of chemical substance/The level of expressed mRNA in the absence of chemical substance (yeast gene YIR017C): 4.2 | The level of expressed mRNA in the presence of chemical substance/The level of expressed mRNA in the absence of chemical substance (yeast gene YIR034C): 3.0 | The level of expressed mRNA in the presence of chemical substance/The level of expressed mRNA in the absence of chemical substance (yeast gene YIR036C): 2.8 | The level of expressed mRNA in the presence of chemical substance/The level of expressed mRNA in the absence of chemical substance (yeast gene YJL031C): 1.9 | The level of expressed mRNA in the presence of chemical substance/The level of expressed mRNA in the absence of chemical substance (yeast gene YJL068C): 3.2 | The level of expressed mRNA in the presence of chemical substance/The level of expressed mRNA in the absence of chemical substance (yeast gene YJL088W): 0.9 | The level of expressed mRNA in the presence of chemical substance/The level of expressed mRNA in the absence of chemical substance (yeast gene YJL099W): 0.9 | level of expressed mRNA in the presence/in the absence of chemical substance (yeast gene YJL121C): 1.1 | level of expressed mRNA in the presence/in the absence of chemical substance (yeast gene YJL167W): 1.2 | The level of expressed mRNA in the presence of chemical substance/The level of expressed mRNA in the absence of chemical substance (yeast gene YJL172W): 1.4 | level of expressed mRNA in the presence/in the absence of chemical substance (yeast gene YJL216C): 1.1 | The level of expressed mRNA in the presence of chemical substance/The level of expressed mRNA in the absence of chemical substance (yeast gene YJL219W): 2.3 | level of expressed mRNA in the presence/in the absence of chemical substance (yeast gene YJR077C): 1.6 | The level of expressed mRNA in the presence of chemical substance/The level of expressed mRNA in the absence of chemical substance (yeast gene YJR137C): 2.0 | level of expressed mRNA in the presence/in the absence of chemical substance (yeast gene YJR143C): 1.3 | The level of expressed mRNA in the presence of chemical substance/The level of expressed mRNA in the absence of chemical substance (yeast gene YJR148W): 0.6
